Test results from patent publication US20150274639A1, “METHODS OF USE FOR COMPOSITIONS COMPRISING A BIOCIDAL POLYAMINE” (Curza Global, LLC, priority 2013, published 2015).
Values after ≈ are worked out from the molar mass of the structure shown. Each block holds one compound with its values, some of them ahead of it.

Tests used:
MRSA [1] = assay: MIC in CAMHB, 96-well plate (10^5 to 10^2 CFU/mL in 24 hours); type: cell-based, methicillin-resistant Staphylococcus aureus; conditions: Staphylococcus aureus, MRSA, Table 5, class symbols
Procedure: (§1) To determine the MIC of polyamine compounds, the protocol described herein was used.
In brief, a 0.5 McFarland of each bacterial isolate was made. A 0.5 McFarland is a measure of turbidity in a liquid sample that contains approximately 1×10̂^8 CFU/mL. The 0.5 McFarland standard was diluted in cation adjusted Mueller Hinton Broth (CAMHB), and […], of broth were added to a well of a 96-well plate. In addition, 50 μL of CAMHB that contained a desired concentration of antimicrobial were also added to the well for a final volume of 100 and a final concentration of approximately 5×10^4 CFU/well (which equated to approximately 5×10^5 CFU/mL). Each well contained a desired amount of polyamine compound in order to experimentally determine the MIC. Each 96-well plate was incubated at 37° C. for 24 hours. The contents of each well were plated on tryptic soy agar (TSA). TSA plates were incubated for 37° C. for 24 hours after which the number of CFU were counted and used to calculate the CFU/mL that remained after exposure to varying concentrations of compound. This procedure was repeated n=8 times for each concentration of antimicrobial. […]

P. aeruginosa = assay: as above; type: cell-based; conditions: Pseudomonas aeruginosa, Table 5, class symbols
Procedure: as §1
In brief, a 0.5 McFarland of each bacterial isolate was made. A 0.5 McFarland is a measure of turbidity in a liquid sample that contains approximately 1×10̂^8 CFU/mL. The 0.5 McFarland standard was diluted in cation adjusted Mueller Hinton Broth (CAMHB), and […], of broth were added to a well of a 96-well plate. In addition, 50 μL of CAMHB that contained a desired concentration of antimicrobial were also added to the well for a final volume of 100 and a final concentration of approximately 5×10^4 CFU/well (which equated to approximately 5×10^5 CFU/mL). Each well contained a desired amount of polyamine compound in order to experimentally determine the MIC. Each 96-well plate was incubated at 37° C. for 24 hours. The contents of each well were plated on tryptic soy agar (TSA). TSA plates were incubated for 37° C. for 24 hours after which the number of CFU were counted and used to calculate the CFU/mL that remained after exposure to varying concentrations of compound. This procedure was repeated n=8 times for each concentration of antimicrobial.

biofilm formation = conditions: Kolodkin-Gal et al., Cell 149 (2012), cited from earlier work
[2] = system: biofilms of MRSA and P. aeruginosa; conditions: understanding of the inventors, no own test described; cited from earlier work
MRSA [3] = assay: MIC against MRSA as defined by CLSI (FIG. 25 series); type: cell-based, methicillin-resistant Staphylococcus aureus; conditions: Staphylococcus aureus
Procedure: To determine the MIC of the polyamine chains alone and the synthesized compounds against MRSA and P. aeruginosa ATCC 27853, a modified protocol from the Clinical and Laboratory Standards Institute (CLSI) guideline M26-A was used. […] All data was collected using cation adjusted MHB for standardization.
As mentioned, MRSA and P. aeruginosa ATCC 27853 were grown on Columbia blood agar plates prior to experimentation. From the blood agar plates, a 0.5 McFarland standard was made of each isolate. This equated to approximately 5×10^7 cells/mL for the MRSA isolate and approximately 3×10^7 cells/mL for the P. aeruginosa ATCC 27853 isolate. Of the 0.5 McFarland stock solution, 50 μL were added to MHB. […] All tests were performed such that a final volume of 5 mL of MHB were obtained. This provided a final bacterial concentration of approximately 5×10^5 cells/mL.
Each sample was incubated in glass test tubes at 37° C. for 24 hours, then plated in duplicate on tryptic soy agar (TSA) using a 10-fold dilution series. TSA plates were further incubated 24 hours at 37° C. The number of colony forming units (CFU) that grew were counted in order to calculate the number of bacteria that were present per mL in the original MHB solution.

MIC (MRSA [1]): < 50 µM
MIC (P. aeruginosa): < 50 µM
SMILES: CC(C)(C)OC(=O)NCCCNCCCNCc1cc(CNCCCNCCCN)cc(CNCCCNCCCNC(=O)OC(C)(C)C)c1 [CZ-54]

SMILES: NCCCNCCCN [norspermidine, N-(3-aminopropyl)propane-1,3-diamine]
concentration at which biofilm formation is inhibited (biofilm formation): 25 µM

SMILES: O=CCCCC=O [glutaraldehyde]
biofilm dispersal effect (comparison antimicrobials) [2]: not seen

SMILES: NCCCNCCCNCc1cccc(CO)c1 [CZ-22]
MIC (MRSA [1]): 50 to 100 µM (≈ 12.6 to 25.1 µg/mL)

SMILES: NCCCCNCc1ccccc1 [CZ-3]
MIC (MRSA [1]): > 100 µM

SMILES: NCCCCNCCCN [spermidine]
concentration at which active (biofilm formation; only active at much higher concentrations): ~1 mM

SMILES: CC(C)Oc1ccc(-c2cc(CNCCCNCCCN)cc(CNCCCNCCCN)c2)cc1CNCCCNCCCN [CZ-66]
MIC (MRSA [1]): < 50 µM
MIC (P. aeruginosa): < 50 µM

SMILES: NCCCNCCCNCc1cc(CO)cc(CNCCCNCCCN)c1 [CZ-53]
MIC (MRSA [1]): < 50 µM
MIC (P. aeruginosa): 50 to 100 µM (≈ 19.7 to 39.5 µg/mL)

SMILES: NCCCNCCCNCCCNCc1ccccc1 [CZ-16]
MIC (MRSA [1]): > 100 µM

SMILES: NCCCNCc1cc(CNCCCN)cc(CNCCCN)c1 [CZ-32]
MIC (MRSA [1]): 50 to 100 µM (≈ 16.8 to 33.7 µg/mL)
MIC (MRSA [3]): 45 µg/mL (≈ 134 µM)
MIC (P. aeruginosa): 50 to 100 µM (≈ 16.8 to 33.7 µg/mL)

SMILES: N=C(NCCCCCCNC(=N)NC(=N)Nc1ccc(Cl)cc1)NC(=N)Nc1ccc(Cl)cc1.O=C(O)[C@H](O)[C@@H](O)[C@H](O)[C@H](O)CO.O=C(O)[C@H](O)[C@@H](O)[C@H](O)[C@H](O)CO [chlorhexidine gluconate]
biofilm dispersal effect (comparison antimicrobials) [2]: not seen

SMILES: NCCCCCCNCc1cc(CNCCCCCCN)cc(CNCCCCCCN)c1 [CZ-33]
MIC (MRSA [1]): 50 to 100 µM (≈ 23.1 to 46.3 µg/mL)
MIC (P. aeruginosa): > 100 µM

SMILES: NCCCNC(=O)c1cccc(C(=O)NCCCN)c1 [CZ-40]
MIC (P. aeruginosa): > 100 µM

SMILES: Cc1cc(C)c(CNCCCN)c(C)c1CNCCCN [CZ-19]
MIC (MRSA [1]): > 100 µM

SMILES: NCCCCCCNCc1cccc(CNCCCCCCN)c1 [CZ-26]
MIC (MRSA [1]): 50 to 100 µM (≈ 16.7 to 33.5 µg/mL)
MIC (P. aeruginosa): > 100 µM

SMILES: CN(C)CCCNCCCNCc1cccc(CNCCCNCCCN(C)C)c1 [CZ-43]
MIC (MRSA [1]): > 100 µM
MIC (P. aeruginosa): > 100 µM

SMILES: COc1ccc(-c2cc(CNCCCNCCCN)cc(CNCCCNCCCN)c2)cn1 [CZ-72]
MIC (MRSA [1]): < 50 µM
MIC (P. aeruginosa): < 50 µM

SMILES: CN(C)CCCNCCCNCc1ccccc1 [CZ-6]
MIC (MRSA [1]): > 100 µM

SMILES: NCCCNCCCNCc1cc(CNCCCNCCCN)cc(-c2ccncc2)c1 [CZ-71]
MIC (MRSA [1]): < 50 µM
MIC (P. aeruginosa): > 100 µM

SMILES: NCCCNCCCNCc1cccc(-c2cc(CNCCCNCCCN)cc(CNCCCNCCCN)c2)c1 [CZ-62]
MIC (MRSA [1]): < 50 µM
MIC (P. aeruginosa): < 50 µM

SMILES: NCCCNCCCNCc1ccc(-c2cc(CNCCCNCCCN)cc(CNCCCNCCCN)c2)cc1 [CZ-65]
MIC (MRSA [1]): < 50 µM
MIC (P. aeruginosa): < 50 µM

MIC (MRSA [1]): < 50 µM
MIC (P. aeruginosa): < 50 µM
SMILES: NCCCNCCCNCc1cc(CNCCCNCCCN)cc(-c2ccc(OC(F)(F)F)c(CNCCCNCCCN)c2)c1 [CZ-69]

SMILES: Cc1ccccc1-c1cc(CNCCCNCCCN)cc(CNCCCNCCCN)c1 [CZ-63]
MIC (MRSA [1]): < 50 µM
MIC (P. aeruginosa): < 50 µM

MIC (P. aeruginosa): > 100 µM
SMILES: NCCCNCc1cccc(CNCCCN)c1 [CZ-12]

SMILES: NCCCNCCCNCc1cc(CNCCCNCCCN)cc(-c2ccc3c(c2)OCO3)c1 [CZ-61]
MIC (MRSA [1]): < 50 µM
MIC (P. aeruginosa): < 50 µM

SMILES: NCCCNCCCNCCCNCc1cccc(CNCCCNCCCNCCCN)c1 [CZ-57]
MIC (MRSA [1]): < 50 µM
MIC (P. aeruginosa): > 100 µM

SMILES: NCCCNCCCNCCCNCc1cc(CNCCCNCCCNCCCN)cc(-c2ccccc2)c1 [CZ-73]
MIC (MRSA [1]): < 50 µM
MIC (P. aeruginosa): < 50 µM
